Laboratory results: US20170189372A1, “USE OF SUBSTITUTED CHROMAN COMPOUNDS” (INSTYTUT BIOLOGII MEDYCZNEJ, priority 2014, published 2017)

Tests used:
[1] = system: reporter cell line for IL-2 (EL-4 cells); test: FCC primary screening with IL-2 reporter cells; assay type: cell-based, mouse; details: relative viability×(relative fluorescence−100); PMA and ionomycin activated, compound 0.4 μg/ml, 18 h
Protocol: (§1) Development of reporter cell lines was described previously (Ulleras, E., D. Trzaska, et al. (2005); “Development of the “Cell Chip”: a new in vitro alternative technique for immunotoxicity testing”, Toxicology 206(2): 245-56). Briefly, EL-4 cells were stably transfected with transgene consisting of promoter regions from mouse β-actin, interleukin-2 (IL-2), interleukin-4 (IL-4), interferon-γ (IFN-γ), and interleukin-10 (IL-10) and ORF for EGFP. Reporter cells were cultured at density 5×10^5-1×10^6 cells/ml in a humidified atmosphere with 5% CO2 at 37° C. in RPMI 1640 with Glutamax supplemented with 20% FCS and 0.5 μg/ml G418.
(§2) When applicable, cells and reagents handling was performed by JANUS Automated Workstation (PerkinElmer, Waltham, Mass., USA). Cells were seeded at a density of 5×10^4 per well in 96-well plates. In the primary screening reporter cells for IL-2 activated with PMA (50 ng/ml) and ionomycin (1 μM) were seeded in a 96-well plate and incubated with compounds from the chemical library in a total volume of 100 μL at 37° C. in a humidified atmosphere with 5% CO2 for 18 h. Concentration of compounds was 0.4 μg/ml. The final DMSO concentration was 0.2%, DMSO is not cytotoxic towards EL-4 reporter cells at this concentration. Control samples consisted of cells in medium with 0.2% DMSO with PMA (50 ng/ml) and ionomycin (1 μM). Following incubation cells were analyzed by flow cytometry. Viability was assessed in parallel to the level of EGFP-mediated fluorescence.
Selection of compounds was based on FCC parameters calculated using the following formula:
FCC parameter=relative viability×(relative fluorescence−100)
(§3) Compounds after primary screening were considered to be hits when FCC parameter calculated after primary screening was ≦−5000. After secondary screening area under the curve (A) of FCC parameter versus relative concentration was calculated (maximum concentration used, i.e. 50 μg/ml, was assumed to be 1).

[2] = system: reporter cell line for β-actin (EL-4 cells); test: FCC test, expanded version, β-actin reporter cell line; assay type: cell-based, mouse; details: PMA and ionomycin, 1.56 to 50 μg/ml, 50 μg/ml assumed to be 1
Protocol: as §1
as §3, with “1). […]” for “1).”
(§4) Flavonoids selected after preliminary screening were undergoing FCC testing using 5 reporter cell lines: for β-actin, interleukin-2 (IL-2), interleukin-4 (IL-4), interferon-γ (IFN-γ) and interleukin-10 (IL-10). The tested concentrations were in the range from 1.56 to 50 μg/ml.
(§5) Using flow cytometry mean fluorescence intensity (columns, left Y axis) and cell viability (dots, the right Y-axis) was determined for all the experimental points and normalized relative to the control—cells incubated with medium with PMA and ionomycin. The data is the mean of the three experiments ±SEM. The statistical significance of differences between means were determined: * p<0.05, ** p<0.01, *** p<0.001 versus control. Values above the graph represent the area under the curve showing the relationship of the FCC parameter and the relative compound concentration.

[3] = system: reporter cell line for interleukin-2 (EL-4 cells); test: FCC test, expanded version, IL-2 reporter cell line; assay type: cell-based, mouse; details: for The area under the curve showing the relationship between the FCC parameter and compound concentration, IL-2: IL-2 reporter line, PMA and ionomycin, 1.56 to 50 μg/ml, 50 μg/ml assumed to be 1
Protocol: as §1
as §3, with “1). […]” for “1).”
as §4, §5

[4] = system: reporter cell line for interleukin-4 (EL-4 cells); test: FCC test, expanded version, IL-4 reporter cell line; assay type: cell-based, mouse; details: for The area under the curve showing the relationship between the FCC parameter and compound concentration, IL-4: IL-4 reporter line, PMA and ionomycin, 1.56 to 50 μg/ml, 50 μg/ml assumed to be 1
Protocol: as §1
as §3, with “1). […]” for “1).”
as §4, §5

[5] = system: reporter cell line for interferon-γ (EL-4 cells); test: FCC test, expanded version, IFN-γ reporter cell line; assay type: cell-based, mouse; details: PMA and ionomycin, 1.56 to 50 μg/ml, 50 μg/ml assumed to be 1
Protocol: as §1
as §3, with “1). […]” for “1).”
as §4, §5

[6] = system: reporter cell line for interleukin-10 (EL-4 cells); test: FCC test, expanded version, IL-10 reporter cell line; assay type: cell-based, mouse; details: IL-10 reporter line; PMA and ionomycin; 1.56 to 50 μg/ml, 50 μg/ml assumed to be 1
Protocol: as §1
as §3, with “1). […]” for “1).”
as §4, §5

[7] = system: IL-2 production by Jurkat cells; test: ELISA for IL-2 in Jurkat cells; assay type: cell-based; details: for inhibition at 10 µg/mL / inhibition at 50 µg/mL: Homo sapiens, Jurkat cells, PMA and ionomycin, 24 hours; for inhibition at 10 µg/mL: 10 μg/ml; for inhibition at 50 µg/mL: 50 μg/ml
Protocol: Jurkat cells were seeded in 48-well plates at a concentration of 1 million/ml. Cells activated with PMA (50 ng/ml) and ionomycin (1 uM) or resting were incubated with 50 selected flavonoids in a concentration of 10 μg/ml and 50 μg/ml for 24 hours in a humidified atmosphere with 5% CO 2 at 37° C. As a control, the respective cells in the medium or in a medium with PMA and ionomycin were employed. After incubation, cells were centrifuged (8 minutes, 1300 rpm), and the cell-free supernatants were stored at −20° C. until measurements. IL-2 was assessed using a commercially available ELISA kits according to the manufacturer's instructions. Each experiment was repeated 3 times.
FCC assay and ELISA assay were repeated three times. Relative data were presented as the means±SEM. […] Statistical significance of differences observed in both assays was tested with ANOVA followed by post hoc Dunnett test using GraphPad software (La Jolla, Calif., USA). In statistical analysis non-relative data were used

[8] = system: reporter cell line EL-4; test: Viability of reporter cells in FCC assay; assay type: cell-based, mouse; details: at concentrations up to 25 mg/ml
Protocol: as §2
as §5, with “Values above the graph represent the area under the curve showing the relationship of the FCC parameter and the relative compound concentration.” left out

COc1cccc(C2CC(=O)c3ccccc3O2)c1OC (stereo not shown) [Compound 10, 2-(2,3-dimethoxyphenyl)chroman-4-one]
FCC parameter (IL-2 screening) [1]: −6685 | The area under the curve showing the relationship between the FCC parameter and compound concentration, AKT [2]: 118 | The area under the curve showing the relationship between the FCC parameter and compound concentration, IL-2 [3]: −2244 | The area under the curve showing the relationship between the FCC parameter and compound concentration, IL-4 [4]: −946 | The area under the curve showing the relationship between the FCC parameter and compound concentration, IFN [5]: −3142 | The area under the curve showing the relationship between the FCC parameter and compound concentration, IL-10 [6]: −1336 | inhibition at 10 µg/mL [7]: 32% | inhibition at 50 µg/mL [7]: 97%

COc1ccc2c(c1)OC(c1ccccc1)CC2=O (stereo not shown) [Compound 11, 7-methoxy-2-phenylchroman-4-one]
FCC parameter (IL-2 screening) [1]: −6917 | The area under the curve showing the relationship between the FCC parameter and compound concentration, AKT [2]: −754 | The area under the curve showing the relationship between the FCC parameter and compound concentration, IL-2 [3]: −3670 | The area under the curve showing the relationship between the FCC parameter and compound concentration, IL-4 [4]: −1499 | The area under the curve showing the relationship between the FCC parameter and compound concentration, IFN [5]: −3975 | The area under the curve showing the relationship between the FCC parameter and compound concentration, IL-10 [6]: −777 | inhibition at 10 µg/mL [7]: 35% | inhibition at 50 µg/mL [7]: 97%

CC(=O)Oc1cc2c(cc1Cl)C(C)(C)CC(C)(c1cc(Cl)c(OC(C)=O)cc1OC(C)=O)O2 (stereo not shown) [Compound 12, 2-(2,4-diacetyloxy-5-chlorophenyl)-6-chloro-2,4,4-trimethylchroman-7-yl acetate]
FCC parameter (IL-2 screening) [1]: −7615 | The area under the curve showing the relationship between the FCC parameter and compound concentration, AKT [2]: −2936 | inhibition of PMA and ionomycin induced EGFP-mediated fluorescence (in words) ([3]; FCC test, reporter cell lines not specified, judged by area under the curve): highest inhibition | decrease in EGFP-mediated fluorescence ([3]; reporter cell line for IL-2, 25 μg/ml): more than 90% | decrease in EGFP-mediated fluorescence ([4]; reporter cell line for IL 4, 25 μg/ml): more than 90% | inhibition at 10 µg/mL [7]: 100% | inhibition at 50 µg/mL [7]: 83% | inhibition of PMA and ionomycin induced IL-2 production by ELISA (in words) ([7]; concentration not given): strongly inhibited | cytotoxicity in the reporter cell line EL-4 [8]: not cytotoxic
